Common to all, as to assay type: cell-based, human
For data set [1], the system named is phosphor-mimetic form of H-Ras. Briefly: Immunoblot of phospho-mimetic H-Ras level in transfected HEK293 cells after ALLN. Particulars: ALLN for 12 hours, immunoblot (FIG. 5A lower panels). Here is the method: The protein expression level of the phosphorylation mimetic mutant is too low to be detected due to the severe destabilization; therefore, the proteasomal inhibitor, ALLN was treated to check for the accumulation of phosphor-mimetic form of H-Ras.
HEK293 cells were transfected with pcDNA3.1-H-Ras, pcDNA3.1-H-Ras-T144E/T148E, or pcDNA3.1-H-Ras-T144D/T148D. For indicated cases, ALLN was also administered for 12 hours. WCEs were immunoblotted with anti-Myc or -α-tubulin antibody (FIG. 5A lower panels). Treatment with ALLN increased the level of phosphor-mimetic form of H-Ras.
On the technique in general: Immunoblotting shows a protein as a band on a membrane.

For data set [2], the system named is polyubiquitin-conjugated K- and N-Ras proteins. Briefly: IP/immunoblot of polyubiquitinated K- and N-Ras in transfected HEK293 cells after ALLN. Particulars: ALLN treatment, IP with anti-Myc (FIG. 8A). As for the experimental part: To examine the possibility that K- and N-Ras proteins, similar to H-Ras, were subjected to polyubiquitination by proteasomal degradation, HEK293 cells were transfected with pcDNA3.1-H-Ras, pcDNA3.1-K-Ras, or pcDNA3.1-N-Ras with pCS4-3xFlag-Ub. Cells were treated with ALLN followed by IP with anti-Myc antibody and then immunoblotted with anti-Myc, -α-tubulin, or -Flag antibody. […] Therefore, we confirmed that H-, K-, N-Ras protein stability is regulated by polyubiquitin-dependent proteasomal degradation (FIG. 8A).

A further data set relates to Pan-Ras. In words: Polyubiquitination of endogenous Pan-Ras in HEK293 cells with Gsk3β siRNA. Particulars: siRNA knockdown, ALLN 12 hours (FIG. 1A). As for the experimental part: Full-length human H-Ras was isolated from a HEK293 cell cDNA library by PCR and then inserted into the pcDNA-3.1-myc vector using EcoRI and HindIII restriction sites. PcDNA3.1-Gsk3β-V5 was constructed in a similar method. HEK293 cells were transfected with vector/nonspecific siRNA, Gsk3β siRNA, or pcDNA3.1-Gsk3β-V5 together with pCS4-3xFlag-Ub for 24 hours and treated with the proteasome inhibitor ALLN for 12 hours. WCEs (whole cell extracts) were then immunoprecipitated (IP) with anti-Pan-Ras antibody to detect the polyubiquitinated H-Ras. WCEs were immunoblotted with antibodies to Gsk3β, Pan-Ras, Myc-H-Ras or α-tubulin. The siRNA sequences for Gsk3β NM_002093) were 5′-[…]-3′ (SEQ ID NO: 2) and 5′-[…]-3′ (SEQ ID NO: 3). The GFP siRNA used for the negative control was 5′-[…]-3′ (SEQ ID NO: 4) (synthesized by Samchully Pharmaceutical, Korea).

Data set [3] relates to H-Ras. In words: H-Ras polyubiquitination in HEK293 cells with Gsk3β or Axin siRNA. Particulars: siRNA knockdown, ALLN 12 hours (FIG. 1C). As for the experimental part: Next, HEK293 cells were transfected with vector/nonspecific siRNA, pSUPER-Axin siRNA, pCS2-MT-Axin, siGsk3β, and/or pcDNA3.1-Gsk3β-V5 together with pcDNA3.1-H-Ras and pCS4-3xFlag-Ub for 24 hours and then treated with ALLN for 12 hours. IP and immunoblotting were performed as described above.

Data set [4] has as its system H-Ras. Briefly: IP/immunoblot of H-Ras polyubiquitination and β-TrCP interaction in HEK293 cells with Wnt3a. As for the experimental part: HEK293 cells were transfected the pcDNA3.1-H-Ras, pcDNA3.1-H-Ras-T144E/T148E, or pcDNA3.1-H-Ras-T144A/T148A with vector, pcDNA3.1-Gsk3β-V5, and/or pcDNA3.1-Flag-β-TrCP, together with pCS4-3xHA-Ub, treated with ALLN for 12 hours and/or Wnt3a for 2 hours as indicated, and prepared for IP with anti-Myc antibody. IPs and WCEs were immunoblotted with anti-HA, -β-TrCP or -α-tubulin antibody.

Where a SMILES comes first, the peptide text is derived from it. [ ]: non-standard residue; d: D form. Nle = CCCC[C@H](N)C(=O)O

Take `CCCC[C@@H](C=O)NC(=O)[C@H](CC(C)C)NC(=O)[C@H](CC(C)C)NC(C)=O` [ALLN] (Ac-Leu-Leu-[Nle]-aldehyde): in data set [1], the “level of phosphor-mimetic form of H-Ras” value was “increased”. In addition, in data set [2], the “accumulation of polyubiquitin-conjugated K- and N-Ras proteins” value was “accumulation of polyubiquitin-conjugated K- and N-Ras proteins”.
As to “Gsk3β siRNA: siRNA for Gsk3β: 5′-CACUGAUUAUACCUCUAGU-3′ and 5′-CACUGUAACAUAGUCCGAU-3′ (chemistry not given here)”, the “levels of Pan-Ras polyubiquitination” value in the data set on Pan-Ras is “decreased”. In addition, the H-Ras polyubiquitination result in the data set on H-Ras [3] is listed as “decreased”.

B1: Wnt3a: recombinant Wnt3a (protein, UniProt P56704 19-352, looked up)
Protein Wnt-3a: SYPIWWSLAVGPQYSSLGSQPILCASIPGLVPKQLRFCRNYVEIMPSVAEGIKIGIQECQHQFRGRRWNCTTVHDSLAIFGPVLDKATRESAFVHAIASAGVAFAVTRSCAEGTAAICGCSSRHQGSPGKGWKWGGCSEDIEFGGMVSREFADARENRPDARSAMNRHNNEAGRQAIASHMHLKCKCHGLSGSCEVKTCWWSQPDFRAIGDFLKDKYDSASEMVVEKHRESRGWVETLRPRYTYFKVPTERDLVYYEASPNFCEPNPETGSFGTRDRTCNVSSHGIDGCDLLCCGRGHNARAERRREKCRCVFHWCCYVSCQECTRVYDVHTCK
B1: the “polyubiquitination of phospho-deficient form of H-Ras” value in the data set with H-Ras [4] (Wnt3a, T144A/T148A H-Ras) is given as “not affected”. Besides, in the data set with H-Ras [4] (recombinant Wnt3a for 2 hours, Wt H-Ras), the “polyubiquitination and interaction with β-TrCP of Wt H-Ras increased by Gsk3β transfection” value is recorded as “blocked”.

The values are drawn from patent US20150309029A1, “Methods for Cancer Diagnosis, Anti-Cancer Drug Screening, and Test of Drug Effectiveness on the Basis of Phoshorylation of Ras at Thr-144 and Thr-148” (Industry-Academic Cooperation Foundation, Yonsei University, priority 2010, published 2015).
